What was measured:
Assay type in all cases: cell-based, Human
[1] = test system: H1581 (FGFR1 amp); assay: In vitro growth inhibition of H1581 tumor cells (MTT/CCK8); conditions: Homo sapiens, NCI-H1581; in vitro growth inhibition (or induction of apoptosis), cells cultured 3 to 5 days, MTT (CCK8); read-out: IC50 H1581 (FGFR1 amp)
[2] = test system: Kasumi-1 (KIT N822K); assay: In vitro growth inhibition of Kasumi-1 tumor cells (MTT/CCK8); conditions: Homo sapiens, Kasumi 1; in vitro growth inhibition (or induction of apoptosis), cells cultured 3 to 5 days, MTT (CCK8); read-out: IC50 Kasumi-1 (KIT N822K)
[3] = test system: KCL-22 (BCR-ABL); assay: In vitro growth inhibition of KCL-22 tumor cells (MTT/CCK8); conditions: Homo sapiens, KCL-22; in vitro growth inhibition (or induction of apoptosis), cells cultured 3 to 5 days, MTT (CCK8); read-out: IC50 KCL-22 (BCR-ABL)
[4] = test system: MOLM-13 (FLT3-ITD); assay: In vitro growth inhibition of MOLM-13 tumor cells (MTT/CCK8); conditions: Homo sapiens, MOLM-13; in vitro growth inhibition (or induction of apoptosis), cells cultured 3 to 5 days, MTT (CCK8); read-out: IC50 MOLM-13 (FLT3-ITD)
[5] = test system: Karpas 299 (NPM-ALK); assay: In vitro growth inhibition of Karpas 299 tumor cells (MTT/CCK8); conditions: Homo sapiens, KARPAS-299; in vitro growth inhibition (or induction of apoptosis), cells cultured 3 to 5 days, MTT (CCK8); read-out: IC50 Karpas 299 (NPM-ALK)
[6] = test system: Hep3B2 (FGFR3/4+++); assay: In vitro growth inhibition of Hep3B2 tumor cells (MTT/CCK8); conditions: Homo sapiens, Hep3B; in vitro growth inhibition (or induction of apoptosis), cells cultured 3 to 5 days, MTT (CCK8); read-out: IC50 Hep3B2 (FGFR3/4+++)
[7] = test system: KATO III (FGFR2 amp); assay: In vitro growth inhibition of KATO III tumor cells (MTT/CCK8); conditions: Homo sapiens, KATO III; in vitro growth inhibition (or induction of apoptosis), cells cultured 3 to 5 days, MTT (CCK8); read-out: IC50 KATO III (FGFR2 amp)
[8] = test system: H1703 (PDGFRa amp); assay: In vitro growth inhibition of H1703 tumor cells (MTT/CCK8); conditions: Homo sapiens, NCI-H1703; in vitro growth inhibition (or induction of apoptosis), cells cultured 3 to 5 days, MTT (CCK8); read-out: IC50 H1703 (PDGFRa amp)

COc1cc2nccc(Oc3ccc(NC(=O)Nc4cc(C(C)(C)C)on4)c(Cl)c3)c2cc1C(N)=O [Compound 2, 4-{4-[3-(5-tert-butyl-isoxazol-3-yl)-ureido]-3-chloro-phenoxy}-7-methoxyquinolin-6-carboxamide]
IC50 [1]: 0.00335 µM
IC50 [2]: 0.0261 µM
IC50 [3]: 0.00758 µM
IC50 [4]: 0.00649 µM
IC50 [5]: 0.587 µM
IC50 [6]: 0.0256 µM
IC50 [7]: 0.00051 µM
IC50 [8]: 0.0079 µM

COc1cc2nccc(Nc3ccc(NC(=O)Nc4cc(C(C)(C)C)n[nH]4)c(Cl)c3)c2cc1C(N)=O [Compound 79, 4-{4-[3-(5-tert-butyl-2H-pyrazol-3-yl)-ureido]-3-chlorophenylamino}-7-methoxyquinol in-6-carboxamide]
IC50 [1]: 0.254 µM
IC50 [2]: > 1 µM
IC50 [3]: > 1 µM
IC50 [4]: 0.107 µM
IC50 [5]: > 1 µM
IC50 [6]: 0.384 µM
IC50 [7]: 0.0199 µM
IC50 [8]: 0.278 µM

C=CC(=O)Nc1cc2c(Oc3ccc(NC(=O)Nc4cc(C(C)(C)C)n[nH]4)cc3Cl)ccnc2cc1OC [Compound 105, N-(4-{4-[3-(5-tert-butyl-2H-pyrazol-3-yl)-ureido]-2-chloro-phenoxy}-7-methoxy-quinolin-6-yl)-acrylamide]
IC50 [1]: 0.0396 µM
IC50 [2]: 0.0573 µM
IC50 [3]: 0.0453 µM
IC50 [4]: 0.00059 µM
IC50 [5]: 0.187 µM
IC50 [6]: 0.0834 µM
IC50 [7]: 0.00407 µM
IC50 [8]: 0.0719 µM

CC(C)(C)c1cc(NC(=O)Nc2ccc(Oc3ccnc4cc(OCCN5CCCCC5)c(C(N)=O)cc34)c(Cl)c2Cl)[nH]n1 [Compound 96, 4-{4-[3-(5-tert-butyl-2H-pyrazol-3-yl)-ureido]-2,3-dichloro-phenoxy}-7-(2-piperidin-1-yl-ethoxy)-quinolin-6-carboxamide]
IC50 [1]: 0.038 µM
IC50 [2]: 0.0314 µM
IC50 [3]: 0.0102 µM
IC50 [4]: 0.00723 µM
IC50 [5]: > 1 µM
IC50 [6]: 0.0366 µM
IC50 [7]: 0.00172 µM
IC50 [8]: 0.045 µM

COc1cc(Oc2ccnc3cc(OC)c(C(N)=O)cc23)ccc1NC(=O)Nc1cc(C(C)(C)C)on1 [Compound 5, 4-{4-[3-(5-tert-butyl-isoxazol-3-yl)-ureido]-3-methoxy-phenoxy}-7-methoxyquinolin-6-carboxamide]
IC50 [1]: 0.0653 µM
IC50 [2]: 0.0129 µM
IC50 [3]: 0.00215 µM
IC50 [4]: 0.00426 µM
IC50 [5]: > 1 µM
IC50 [6]: 0.156 µM
IC50 [7]: 0.00976 µM
IC50 [8]: 0.0188 µM

CCC(=O)Nc1cc2c(Oc3ccc(NC(=O)Nc4cc(C(C)(C)C)n[nH]4)c(Cl)c3)ccnc2cc1OC [Compound 64, N-(4-{4-[3-(5-tert-butyl-2H-pyrazol-3-yl)-ureido]-3-chloro-phenoxy}-7-methoxyquinolin-6-yl)-propionamide]
IC50 [1]: 0.00864 µM
IC50 [2]: 0.0343 µM
IC50 [3]: 0.0174 µM
IC50 [4]: 0.00878 µM
IC50 [5]: 0.186 µM
IC50 [6]: 0.019 µM
IC50 [7]: 0.00063 µM
IC50 [8]: 0.0131 µM

C=CC(=O)Nc1cc2c(Oc3ccc(NC(=O)Nc4cc(C(C)(C)C)on4)c(Cl)c3)ccnc2cc1OC [Compound 22, N-(4-{4-[3-(5-tert-butyl-isoxazol-3-yl)-ureido]-3-chloro-phenoxy}-7-methoxyquinolin-6-yl)-acrylamide]
IC50 [1]: 0.0407 µM
IC50 [2]: 0.0917 µM
IC50 [3]: 0.0617 µM
IC50 [4]: 0.0169 µM
IC50 [5]: 0.61 µM
IC50 [6]: 0.0187 µM
IC50 [7]: 0.00854 µM
IC50 [8]: 0.0278 µM

CNC(=O)c1cc2c(Oc3ccc(NC(=O)Nc4cc(C(C)(C)C)nn4C)cc3C)ccnc2cc1OC [Compound 53, 4-{4-[3-(5-tert-butyl-2-methyl-2H-pyrazol-3-yl)-ureido]-2-methyl-phenoxy}-7-methoxy quinolin-6-carboxylate acid methylamide]
IC50 [1]: 0.218 µM
IC50 [2]: 0.0177 µM
IC50 [3]: 0.0286 µM
IC50 [4]: 0.00112 µM
IC50 [5]: 0.302 µM
IC50 [6]: 0.344 µM
IC50 [7]: 0.00681 µM
IC50 [8]: 0.064 µM

CNC(=O)c1cc2c(Oc3ccc(NC(=O)Nc4cc(C(C)(C)C)nn4C)c(Cl)c3Cl)ccnc2cc1OC [Compound 57, 4-{4-[3-(5-tert-butyl-2-methyl-2H-pyrazol-3-yl)-ureido]-2,3-dichloro-phenoxy}-7-methoxyquinolin-6-carboxylic acid methylamide]
IC50 [1]: 0.00285 µM
IC50 [2]: 0.003 µM
IC50 [3]: 0.00258 µM
IC50 [4]: 0.00129 µM
IC50 [5]: 0.0693 µM
IC50 [6]: 0.0219 µM
IC50 [7]: 0.00041 µM
IC50 [8]: 0.0117 µM

COc1cc2nccc(Oc3ccc(NC(=O)Nc4cc(C(C)(C)C)on4)c(C)c3)c2cc1C(N)=O [Compound 6, 4-{4-[3-(5-tert-butyl-isoxazol-3-yl)-ureido]-3-methyl-phenoxy}-7-methoxyquinolin-6-carboxamide]
IC50 [1]: 0.0106 µM
IC50 [2]: 0.0261 µM
IC50 [3]: 0.0178 µM
IC50 [4]: 0.0209 µM
IC50 [5]: 0.689 µM
IC50 [6]: 0.0453 µM
IC50 [7]: 0.00286 µM
IC50 [8]: 0.0156 µM

COc1cc2nccc(Oc3ccc(NC(=O)Nc4cc(C(C)(C)C)n[nH]4)c(Cl)c3)c2cc1C#N [Compound 67, 1-(5-tert-butyl-2H-pyrazol-3-yl)-3-[2-chloro-4-(6-cyano-7-methoxy-quinolin-4-yloxy)-phenyl]-urea]
IC50 [1]: 0.164 µM
IC50 [2]: 0.0248 µM
IC50 [3]: 0.0192 µM
IC50 [4]: 0.0722 µM
IC50 [5]: 0.863 µM
IC50 [6]: 0.27 µM
IC50 [7]: 0.00683 µM
IC50 [8]: 0.436 µM

COc1cc2nccc(Nc3ccc(NC(=O)Nc4cc(C(C)(C)C)on4)cc3Cl)c2cc1C(N)=O [Compound 100, 4-{4-[3-(5-tert-butyl-isoxazol-3-yl)-ureido]-2-chloro-phenylamino}-7-methoxy-quinolin-6-carboxamide]
IC50 [1]: 0.271 µM
IC50 [2]: > 1 µM
IC50 [3]: 0.694 µM
IC50 [4]: 0.00101 µM
IC50 [5]: 0.839 µM
IC50 [6]: > 1 µM
IC50 [7]: 0.0497 µM
IC50 [8]: 0.202 µM

COc1cc2nccc(Oc3ccc(NC(=O)Nc4cc(C(C)(C)C)on4)c(Cl)c3)c2cc1NC(=O)C1CCCC1 [Compound 23, cyclopentane carboxylic acid (4-{4-[3-(5-tert-butyl-isoxazol-3-yl)-ureido]-3-chloro-phenoxy}-7-methoxyquinolin-6-yl)-amide]
IC50 [1]: 0.227 µM
IC50 [2]: 0.547 µM
IC50 [3]: 0.436 µM
IC50 [4]: 0.0949 µM
IC50 [5]: > 1 µM
IC50 [6]: 0.214 µM
IC50 [7]: 0.0105 µM
IC50 [8]: 0.42 µM

CCc1cc(NC(=O)Nc2cc(C(C)(C)C)n[nH]2)ccc1Oc1ccnc2cc(OC)c(C(N)=O)cc12 [Compound 106, 4-{4-[3-(5-tert-butyl-2H-pyrazol-3-yl)-ureido]-2-ethyl-phenoxy}-7-methoxy-quinolin-6-carboxamide]
IC50 [1]: 0.168 µM
IC50 [2]: 0.176 µM
IC50 [3]: 0.115 µM
IC50 [4]: 0.00937 µM
IC50 [5]: 0.38 µM
IC50 [6]: > 1 µM
IC50 [7]: 0.0467 µM
IC50 [8]: 0.12 µM

C=CC(=O)N1CCC(NC(=O)Nc2ccc(Oc3ccnc4cc(OC)c(C(N)=O)cc34)cc2Cl)C1 (stereo not drawn) [Compound 70, 4-{3-chloro-4-[3-(1-acryloylpyrrolidin-3-yl)-ureido]-phenoxy}-7-methoxyquinolin-6-carboxamide]
IC50 [1]: > 1 µM
IC50 [2]: > 1 µM
IC50 [3]: > 1 µM
IC50 [4]: > 1 µM
IC50 [5]: > 1 µM
IC50 [6]: > 1 µM
IC50 [7]: > 1 µM
IC50 [8]: > 1 µM

CNC(=O)c1cc2c(Oc3ccc(NC(=O)Nc4cc(C(C)(C)C)n[nH]4)c(Cl)c3Cl)ccnc2cc1OC [Compound 56, 4-{4-[3-(5-tert-butyl-2H-pyrazol-3-yl)-ureido]-2,3-dichloro-phenoxy}-7-methoxyquinol in-6-carboxylic acid methylamide]
IC50 [1]: 0.00366 µM
IC50 [2]: 0.00107 µM
IC50 [3]: 0.0014 µM
IC50 [4]: 0.00287 µM
IC50 [5]: 0.0392 µM
IC50 [6]: 0.0176 µM
IC50 [7]: 0.00028 µM
IC50 [8]: 0.0189 µM

COc1cc2nccc(Oc3ccc(NC(=O)Nc4cc(C(C)(C)C)n[nH]4)c(Cl)c3)c2cc1NC(=O)C1CCCC1 [Compound 65, cyclopentane carboxylic acid (4-{4-[3-(5-tert-butyl-2H-pyrazol-3-yl)-ureido]-3-chloro-phenoxy}-7-methoxy-quinolin-6-yl)-amide]
IC50 [1]: 0.218 µM
IC50 [2]: 0.568 µM
IC50 [3]: 0.163 µM
IC50 [4]: 0.072 µM
IC50 [5]: > 1 µM
IC50 [6]: 0.16 µM
IC50 [7]: 0.011 µM
IC50 [8]: 0.247 µM

COc1cc2nccc(Nc3ccc(NC(=O)Nc4cc(C(C)(C)C)on4)cc3)c2cc1C(N)=O [Compound 78, 4-{4-[3-(5-tert-butyl-isoxazol-3-yl)-ureido]-phenylamino}-7-methoxyquinolin-6-carboxamide]
IC50 [1]: 0.684 µM
IC50 [2]: > 1 µM
IC50 [3]: > 1 µM
IC50 [4]: 0.00137 µM
IC50 [5]: > 1 µM
IC50 [6]: 0.502 µM
IC50 [7]: 0.0366 µM
IC50 [8]: 0.447 µM

Source: patent US10800741B2 (ANCUREALL PHARMACEUTICAL (SHANGHAI) CO., LTD., priority 2017, dated 2020)
